The OPERA property sets (Mansouri et al. 2018)
Values after ≈ are worked out from the molar mass of the structure shown.

Details: not given

solubility [µM]	SMILES
871000 (≈ 250000 µg/mL)	O=S(=O)(O)OCCOc1ccc(Cl)cc1Cl

Same assay, conditions: 20 °C

solubility [µM]	SMILES
0.0926 (≈ 0.03 µg/mL)	Clc1ccc(Sc2cc(Cl)c(Cl)cc2Cl)cc1
1.19 (≈ 0.3 µg/mL)	CON(C(=O)c1cc(C)oc1C)C1CCCCC1
219 (≈ 50 µg/mL)	Cc1cc(Cl)ccc1NC(=S)N(C)C
107 (≈ 30 µg/mL)	CC(=O)OC[C@H]([C@H](OC(C)=O)c1ccccc1)[N+](=O)[O-]
11400 (≈ 3000 µg/mL)	CCS(=O)(=O)c1nnc(N(C)C(=O)NC)s1

Same assay, conditions: 25 °C

solubility [µM]	SMILES
2.59 (≈ 0.937 µg/mL)	CCOC(=O)C(C)Oc1ccc(Oc2nc3ccc(Cl)cc3o2)cc1 (stereo not given)
2740 (≈ 750 µg/mL)	CCOC(=O)CNc1nc(Cl)nc(NC(C)C)n1
8.76 (≈ 3 µg/mL)	CCN(C(=O)Oc1cccc(NC(=O)OC(C)C)c1)c1ccccc1
2050 (≈ 574 µg/mL)	O=C1OCCC1N(C(=O)C1CC1)c1cccc(Cl)c1 (stereo not given)
